Values joined by “and” are separate entries in the source; they are usually repeats but may differ in a detail not shown here. Equal entries are not always repeated.
Key:
human 5-HT1AR = target: T1, human 5-HT1AR (Homo sapiens, UniProt P08908); assay: β-Arrestin recruitment (Tango LiveBLAzer, HTR1A-bla U2OS cells)
T1 sequence (P08908 1-422): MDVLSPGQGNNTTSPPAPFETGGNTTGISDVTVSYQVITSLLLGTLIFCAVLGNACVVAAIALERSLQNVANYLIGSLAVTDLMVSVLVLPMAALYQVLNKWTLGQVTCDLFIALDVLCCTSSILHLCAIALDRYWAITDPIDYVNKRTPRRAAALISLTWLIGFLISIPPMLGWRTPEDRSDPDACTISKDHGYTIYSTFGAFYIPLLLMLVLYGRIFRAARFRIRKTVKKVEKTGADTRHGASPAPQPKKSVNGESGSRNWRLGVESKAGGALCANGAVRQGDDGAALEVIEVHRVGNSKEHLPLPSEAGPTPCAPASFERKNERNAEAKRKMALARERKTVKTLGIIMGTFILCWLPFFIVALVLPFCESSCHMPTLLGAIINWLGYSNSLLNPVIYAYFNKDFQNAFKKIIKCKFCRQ
Protocol: Cells were cultured according to manufacturer’s instruction. […] This parental cell line stably expresses a beta-arrestin/TEV protease fusion protein and the beta-lactamase reporter gene under the control of a UAS response element. The Tango™ HTR1A-bla U2OS cells have been functionally validated for a response to 5-CT. This cell line tested negative for mycoplasma.
The HTR1A-bla U2OS receptor cells containing the human 5-HT1AR linked to a TEV protease site and a Gal4-VP16 transcription factor were tested for recruitment of β-arrestin. […] The recruitment of β-arrestin were tested using the Tango LiveBLAzer assay kit according to the manufacturer’s instruction (Life Technologies). The assay plate was measured in FLUOstar Optima, a multifunction plate reader (BMG Lab Tech).

PDE4B = tested on: PDE4B; parameters: method as in PMID 27353547; settings: in vitro, bioluminescent detection system; ref [8]; cited from earlier work
[1] = parameters: method as in PMID 27353547; settings: ref [8]; cited from earlier work
[2] = target: serotonergic 5-HT7 receptor (5-HT7R); parameters: method as in PMID 27353547; settings: ref [8]; cited from earlier work
[3] = Body weight measurement in the 17-day experiment; assay type: in vivo, Swiss albino mice; settings: for body weight Mean / body weight: mouse, 1.25 mg/kg
Protocol: (§1) The Swiss albino mice were used in the experiment. AZ-853 and AZ-861 were injected once daily for 16 consecutive days. On the 1st and 15th day the administration of the compounds, 18-h spontaneous animal activity was registered (see below). FST, as described earlier, was performed on the 14th day just before the next treatment. To ensure that the effects observed in FST are not the result of increased motility of animals, on the 13th day, just before the next administration, the locomotor activity was measured as described earlier, from 2 to 6 min after test start, i.e. in the period identical to the duration of FST. Blood and organ collection was performed on the 17th day at 24 h after the last dose and fasting.
(§2) The body weight was measured daily immediately prior to administration of the drugs. On the 17th day, the blood was collected from the Swiss albino mice sacrificed by decapitation 20 min after i.p. administration of heparin (2500 units/mouse) and then centrifuged at 600 × g (15 min, 4°C) to separate plasma. The liver, heart, and kidney were also collected and weighed.

[4] = Liver, kidney and heart weight after repeated administration; assay type: in vivo, Swiss albino mice; settings: mice, AZ-853 0.625 mg/kg, AZ-861 1.25 mg/kg
Protocol: as §1, §2

mice = assay: Forced swim test (FST) in mice; assay type: in vivo, Swiss albino mice
Text: The investigated compounds AZ-853 (8-(4-(4-(2-fluorophenyl)piperazin-1-yl)butyl)-1,3-dimethyl-1H-imidazo[2,1-f]purine-2,4(3H,8H)-dione and AZ-861 (1,3-dimethyl-8-(4-(4-(3-(trifluoromethyl)phenyl)piperazin-1-yl)butyl)-1H-imidazo[2,1-f]purine-2,4(3H,8H)-dione) were synthesised in the Department of Medicinal Chemistry, Faculty of Pharmacy, Jagiellonian University, and their synthesis was described earlier. AZ-853 and AZ-861 were suspended in 1% aqueous solution of Tween 80, and WAY-100635 (Sigma, Germany) was dissolved in 0.9% saline. In acute experiments, the selected compounds AZ-853 (0.156–2.5 mg/kg) and AZ-861 (0.625–2.5 mg/kg) were injected i.p. once 60 min before tests, whereas WAY-100635 (0.3 mg/kg) was administered subcutaneously (s.c.) 45 min before the test. […] In chronic experiments, AZ-853 and AZ-861 were administered i.p. once a day (between 9:00 AM and 10:00 AM) for 16 consecutive days at the minimum active doses selected from FST experiment, i.e. 0.625 and 1.25 mg/kg, respectively. All compounds were administered to mice at a volume of 10 ml/kg and to rats at a volume of 2 ml/kg. The control groups received 1% aqueous solution of Tween 80.
The experiment was carried out according to the method of Porsolt et al.. Swiss albino mice were individually placed in a glass cylinder (25 cm high; 10 cm in diameter) containing 10 cm of water maintained at 23–25°C, and were left there for 6 min. The total duration of immobility was recorded during the last 4 min of a 6-min. A mouse was regarded as immobile when it remained floating on the water, making only small movements to keep its head above it.
as §1

[5] = target: T2, human serotonin 5-HT1A receptor (Homo sapiens, UniProt P08908); assay: ERK1/2 phosphorylation (SureFire Alpha LISA, CHO-K1 5HT1AR cells)
T2 sequence (P08908 1-422): T1 sequence (P08908 1-422)
Protocol: CHO-K1 cell line transfected with 5-HT1A receptor, were commercially obtained from Perkin Elmer (Cat. No. ES-310-C, Lot Number M2W-C1). Cells were cultured according to manufacturer’s instruction. […] Geneticin-resistant clones were obtained by limit dilution and compared for receptor expression levels using a radioligand binding assay. The clone with the highest receptor expression level was selected for characterization in binding and functional assays. […] Corresponding Protein Sequence: Identical to GenBank NP_000515.2. Receptor expression level (BMAX): Estimated to be 3.7 ± 2.3 pmol/mg protein, using [3H] […] This cell line tested negative for mycoplasma.

In the case of `Cn1c(=O)c2c(nc3n(CCCCN4CCN(c5cccc(C(F)(F)F)c5)CC4)ccn23)n(C)c1=O` [AZ-861, 1,3-dimethyl-8-(4-(4-(3-(trifluoromethyl)phenyl)piperazin-1-yl)butyl)-1H-imidazo[2,1-f]purine-2,4(3H,8H)-dione], the EC50 (human 5-HT1AR) is reported as 0.372 nM, the Emax (human 5-HT1AR; U2OS, read-out: Emax (%) ± SEM, agonist mode) is reported as 95 ± 1.7% and the “increased potency as compared to 5-HT” value (human 5-HT1AR; β-arrestin recruitment) is reported as 1000 fold. For the same molecule, the PDE4B inhibitory activity (PDE4B) was “did not induce PDE4B and PDE10A inhibitory activity”, the estimated log p [1] was 5.75 and the Ki [2] was 136 nM. For the same molecule, the “effect on body weight” value ([3]; mice, repeated i.p. once daily, AZ-853 0.625 mg/kg (from 10th day), AZ-861 1.25 mg/kg (2nd, 3rd, 4th day)) was “slight and significant decrease in body weight”, the “body weight Mean” value ([3]; day 1, group mean) was 23.19 g and the body weight ([3]; day 1, individual mouse) was 20.6 g and 21.8 g and 22.1 g and 24.2 g and 24.0 g and 23.4 g and 23.1 g and 24.9 g and 26.3 g and 21.5 g. For the same molecule, the “body weight Mean” value ([3]; day 2, group mean) was 23.05 g, the body weight ([3]; day 2, individual mouse) was 20.7 g and 22.8 g and 22.6 g and 24.2 g and 23.5 g (2×) and 23.1 g and 23.6 g and 24.9 g and 21.6 g and the “body weight Mean” value ([3]; day 3, group mean) was 23.20 g. For the same molecule, the body weight ([3]; day 3, individual mouse) was 21.0 g (2×) and 22.0 g and 23.0 g and 24.0 g (5×) and 25.0 g, the “body weight Mean” value ([3]; day 4, group mean) was 23.30 g and the body weight ([3]; day 4, individual mouse) was 22.0 g (2×) and 23.0 g (3×) and 21.0 g and 24.0 g (2×) and 25.0 g and 26.0 g. For the same molecule, the “body weight Mean” value ([3]; day 5, group mean) was 23.70 g, the body weight ([3]; day 5, individual mouse) was 21.6 g and 22.5 g and 22.7 g and 24.5 g and 24.0 g and 23.5 g and 24.9 g and 26.3 g and 25.9 g and 21.1 g and the “body weight Mean” value ([3]; day 6, group mean) was 23.76 g. For the same molecule, the body weight ([3]; day 6, individual mouse) was 21.6 g (2×) and 22.1 g and 22.6 g and 25.1 g and 24.3 g and 23.0 g and 25.3 g and 25.6 g and 26.4 g, the “body weight Mean” value ([3]; day 7, group mean) was 23.90 g and the body weight ([3]; day 7, individual mouse) was 22.0 g (3×) and 23.0 g and 25.0 g (2×) and 24.0 g (2×) and 26.0 g (2×). For the same molecule, the “body weight Mean” value ([3]; day 8, group mean) was 24.10 g, the body weight ([3]; day 8, individual mouse) was 23.0 g (3×) and 25.0 g (2×) and 24.0 g (2×) and 26.0 g (2×) and 22.0 g and the “body weight Mean” value ([3]; day 9, group mean) was 24.40 g. The body weight ([3]; day 9, individual mouse) was 23.0 g (4×) and 26.0 g (3×) and 25.0 g (2×) and 24.0 g, the “body weight Mean” value ([3]; day 10, group mean) was 24.31 g and the body weight ([3]; day 10, individual mouse) was 22.5 g and 23.1 g (2×) and 25.2 g and 24.7 g and 24.0 g and 25.0 g and 26.6 g and 26.8 g and 22.1 g. For the same molecule, the “body weight Mean” value ([3]; day 11, group mean) was 24.47 g, the “body weight Mean” value ([3]; day 12, group mean) was 24.59 g and the “body weight Mean” value ([3]; day 13, group mean) was 24.59 g. The “body weight Mean” value ([3]; day 14, group mean) was 24.73 g, the “body weight Mean” value ([3]; day 15, group mean) was 25.31 g and the “effect on liver, kidney and heart weight (% of total body weight)” value [4] was “neither AZ-853 (0.625 mg/kg) nor AZ-861 (1.25 mg/kg) influenced”. For the same molecule, the “reduction of immobility time in FST” value (mice; acute, 1.25 mg/kg i.p., 60 min before test) was “approximately 33%”, the “effect of WAY-100635 on the antidepressant-like action of the compound in FST” value (mice; compound 1.25 mg/kg i.p. + WAY-100635 0.3 mg/kg s.c.) was “attenuation of the anti-immobility effect” and the “effect on immobility time in FST after repeated administration” value (mice; i.p. once daily for 13 consecutive days, AZ-853 0.625 mg/kg, AZ-861 1.25 mg/kg) was “decreased the immobility time”. The EC50 [5] was 1.15 nM, the Emax ([5]; CHO-K1, read-out: Emax (%) ± SEM, agonist mode) was 76 ± 1.3% and the “decreased efficacy as compared to 5-HT” value ([5]; p-ERK1/2) was 1.3 fold. The “increased potency as compared to 5-HT” value ([5]; p-ERK1/2) was 9.1 fold.
